Laboratory results taken from paper PMC13477270 (Nature structural & molecular biology, 2025).

Key:
iTRIM37 KO RPE1 cells = assay type: cell-based; conditions: centrinone pretreatment, then TRIM37 knockout with doxycycline
[1] = test system: iTRIM37 KO RPE1 cells (PLK4 inhibition); assay type: cell-based; conditions: centrinone 100 or 150 nM, before TRIM37 knockout with doxycycline

Structure (SMILES): COc1c(Nc2cc(C)[nH]n2)nc(Sc2ccc(S(=O)(=O)Cc3cccc([N+](=O)[O-])c3F)cc2F)nc1N1CCOCC1 [centrinone]
- frequency of centrobin condensate formation after centrosome loss (iTRIM37 KO RPE1 cells): at a frequency similar to that in constitutive TRIM37Δ cells with centrosomes
- centrosome depletion [1]: depleted centrosomes
